Data published in ChEMBL document CHEMBL4152347 (J Med Chem, 2018).
In brackets after ≈: the same amount, converted by molar mass.

Assays:
[1] = Solubility of compound in fasted state simulated intestinal fluid at pH 6.5; type: physicochemical
[2] = Solubility of compound in fed state simulated intestinal fluid at pH 5; type: physicochemical
[3] = Protein binding in rat serum at 53 nM after 1 hr by ultracentrifugation assay; type: ADME, cell-free; conditions: read-out: PB (converted)
[4] = Protein binding in dog serum at 53 nM after 1 hr by ultracentrifugation assay; type: ADME, cell-free, Canis lupus familiaris; conditions: read-out: PB (converted)
[5] = Protein binding in cynomolgus monkey serum at 53 nM after 1 hr by ultracentrifugation assay; type: ADME, cell-free, Macaca fascicularis; conditions: read-out: PB (converted)
[6] = Cmax in CD1 mouse at 5 mg/kg, po administered via gavage; type: ADME, organism-based; design: dose 5 mg/kg, route oral; conditions: in vivo
[7] = AUC (0 to infinity) in CD1 mouse at 1 mg/kg, iv; type: ADME, organism-based; design: dose 1 mg/kg, route intravenous, time infinity; conditions: in vivo
[8] = AUC (0 to infinity) in CD1 mouse at 5 mg/kg, po administered via gavage; type: ADME, organism-based; design: dose 5 mg/kg, time infinity, route oral; conditions: in vivo
[9] = Tmax in Sprague-Dawley rat at 5 mg/kg, po; type: ADME, organism-based; conditions: in vivo
[10] = Volume of distribution at steady state in Sprague-Dawley rat at 1 mg/kg, iv; type: ADME, organism-based; conditions: in vivo, read-out: Vdss
[11] = Oral bioavailability in Sprague-Dawley rat at 5 mg/kg treated with 10 mg/kg elacridar immediately after compound dosing; type: ADME, organism-based; conditions: in vivo, with elacridar 10 mg/kg
[12] = Tmax in beagle dog at 5 mg/kg, po administered via gavage as solution; type: ADME, organism-based, Canis lupus familiaris; conditions: in vivo
Canis familiaris [13] = assay: Tmax in beagle dog at 1 mg/kg, iv; type: ADME, organism-based, Canis lupus familiaris; conditions: in vivo
Canis familiaris [14] = assay: AUC (0 to infinity) in beagle dog at 1 mg/kg, iv; type: ADME, organism-based, Canis lupus familiaris; design: dose 1 mg/kg, route intravenous, time infinity; conditions: in vivo
[15] = Oral bioavailability in beagle dog at 5 mg/kg administered as solution; type: ADME, organism-based, Canis lupus familiaris; conditions: in vivo
[16] = Cmax in beagle dog at 5 mg/kg, po administered via gavage as microsuspension pre-treated with 6 ug/kg, im pentagastrin 15 to 30 mins before compound dosing; type: ADME, organism-based, Canis lupus familiaris; conditions: in vivo
[17] = Oral bioavailability in beagle dog at 5 mg/kg administered via gavage as microsuspension pre-treated with 6 ug/kg, im pentagastrin 15 to 30 mins before compound dosing; type: ADME, organism-based, Canis lupus familiaris; conditions: in vivo
[18] = Cmax in beagle dog at 5 mg/kg, po administered via gavage as microsuspension along with high fat meal; type: ADME, organism-based, Canis lupus familiaris; design: dose 5 mg/kg, route oral; conditions: in vivo
Canis familiaris [19] = assay: Oral bioavailability in beagle dog at 5 mg/kg administered via gavage as microsuspension along with high fat meal; type: ADME, organism-based, Canis lupus familiaris; conditions: in vivo
[20] = Oral bioavailability in beagle dog at 5 mg/kg administered via gavage as microsuspension pre-treated with 40 mg famotidine in capsule form 1 hr before compound dosing; type: ADME, organism-based, Canis lupus familiaris; conditions: in vivo
[21] = AUC (0 to infinity) in cynomolgus monkey at 1 mg/kg, iv; type: ADME, organism-based, Macaca fascicularis; design: dose 1 mg/kg, time infinity, route intravenous; conditions: in vivo
[22] = Tmax in MDR1 a/b knockout mouse at 5 mg/kg, po administered via gavage; type: ADME, organism-based; conditions: in vivo
[23] = AUC (0 to infinity) in MDR1 a/b knockout mouse at 5 mg/kg, po administered via gavage; type: ADME, organism-based; design: dose 5 mg/kg, time infinity, route oral; conditions: in vivo
[24] = Half life in dog liver microsomes at 0.5 uM after 1 hr in presence of NADPH by LC-MS/MS analysis; type: ADME, Canis lupus familiaris, microsome
[25] = Half life in cynomolgus monkey liver microsomes at 0.5 uM after 1 hr in presence of NADPH by LC-MS/MS analysis; type: ADME, Macaca fascicularis, microsome
[26] = Half life in mouse hepatocytes at 0.5 uM after 1 hr in presence of NADPH by LC-MS/MS analysis; type: ADME, cell-based, Hepatocyte
[27] = Half life in human hepatocytes at 0.5 uM after 1 hr in presence of NADPH by LC-MS/MS analysis; type: ADME, cell-based, Hepatocyte
[28] = Stability of the compound in human plasma at 1 uM after 2 hrs by LC-MS/MS analysis; type: ADME, cell-free
Salmonella typhimurium [29] = assay: Mutagenicity in Salmonella typhimurium TA100 in presence of Aroclor 1254-induced rat liver S9 fraction at up to 1600 ug/plate; type: toxicity, organism-based; conditions: salmonella enterica subsp. enterica serovar typhimurium
Salmonella typhimurium [30] = assay: Mutagenicity in Salmonella typhimurium TA100 in absence of Aroclor 1254-induced rat liver S9 fraction at up to 1600 ug/plate; type: toxicity, organism-based; conditions: salmonella enterica subsp. enterica serovar typhimurium
[31] = biological target: Human immunodeficiency virus type 1 Gag protein (Human immunodeficiency virus 1, UniProt Q77YG1)
Description: Binding affinity to wild type HIV1 gag polyprotein containing viral like particle

Gag-Pol polyprotein = Gag-Pol polyprotein (Human immunodeficiency virus type 1 group M subtype B (isolate HXB2)(HIV-1), UniProt P04585, V362I)
physchem = conditions: aqueous
Description: Aqueous solubility of the compound

[32] = tested on: Human immunodeficiency virus 1; assay: microbe, parasite or virus in culture
Description: Antiviral activity against HIV1 expressing gag A364V mutant

C=C(C)[C@@H]1CC[C@]2(NCCN3CCS(=O)(=O)CC3)CC[C@]3(C)[C@H](CC[C@@H]4[C@@]5(C)CC=C(c6ccc(C(=O)O)cc6)C(C)(C)[C@@H]5CC[C@]43C)[C@@H]12 [BMS-955176]
solubility [1]: 280 µg/mL (≈ 405 µM) | solubility [2]: 1020 µg/mL (≈ 1480 µM) | fraction unbound at 1 h, 0.053 µM [3]: 0.141 | fraction unbound at 1 h, 0.053 µM [4]: 0.154 | fraction unbound at 1 h, 0.053 µM [5]: 0.216 | Cmax [6]: 2.79 µM | AUC(0-inf) [7]: 21.6 µM·h | AUC(0-inf) [8]: 28.9 µM·h | Tmax [9]: 6 h | Vd [10]: 1.1 L/kg | bioavailability [11]: 63% | Tmax [12]: 12.7 h | Tmax (Canis familiaris [13]): 187 h | AUC (Canis familiaris [14]): 31.7 µM·h | bioavailability [15]: 9% | Cmax [16]: 4.43 µM | bioavailability [17]: 26% | Cmax [18]: 10.2 µM | F (Canis familiaris [19]): 67% | bioavailability [20]: 26% | AUC(0-inf) [21]: 13.6 µM·h | Tmax [22]: 3 h | AUC(0-inf) [23]: 65.5 µM·h | half-life at 0.5 µM [24]: > 2 h | half-life at 0.5 µM [25]: 0.183 h | half-life at 0.5 µM [26]: > 2 h | half-life at 0.5 µM [27]: > 2 h | Stability [28]: Stable | Activity (Salmonella typhimurium [29]): Non-Toxic | Activity (Salmonella typhimurium [30]): Non-Toxic | Kd [31]: 3.2 nM | Kd (Gag-Pol polyprotein): 4.3 nM | solubility (physchem): < 1 µg/mL | EC50 [32]: 1480 nM
